Details of data set [1]: method as in Eckardt et al, 1995; Schellens et al, 1996. Particulars: i.v. formulation administered orally; fasted patients; ref Eckardt et al, 1995; Schellens et al, 1996; cited from earlier work.
On the set-up of data set [2]: method as in Davies et al, 1995. As to conditions: dogs, ref Davies et al, 1995; cited from earlier work.
On the set-up of data set [3]: method as in Gerrits et al, 1998. As to conditions: oral gelatin capsule, ref Gerrits et al, 1998, cited from earlier work.
The nature of data set [4]: clinical. In kind it is in vivo, human (patients with solid tumours). As to conditions: for Urinary excretion: 24 h urine. The source says: (§1) Topotecan (Hycamtin) is one of the prototypes of a promising new class of cytotoxic drugs that act through inhibition of topoisomerase I. Topoisomerase I is a nuclear enzyme that relieves the torsional strain in DNA ahead of the moving replication fork (Hsiang et al, 1988, 1989). Inhibition of the enzyme results in lethal DNA damage during transcription and replication. The E-ring lactone in the basic structure of topotecan is considered to be essential for interaction with the topoisomerase I enzyme (Hertzberg et al, 1989; Pommier et al, 1991). […] Prolonged administra- tion increases the probability that tumour cells will be exposed to topotecan during DNA replication, i.e. when they are most suscep- tible. In-vivo in patients there is yet no convincing evidence of a clinically relevant schedule dependency. Intravenous (i.v.) topotecan administered as daily 30-min infu- sions for 5 days has recently received marketing approval for the treatment of patients with ovarian cancer after failure of initial or subsequent platinum-based chemotherapy. An oral gelatin capsule formulation has now been developed (Creemers et al, 1997; Gerrits et al 1998). A phase I study has determined the maximum tolerated dose (MTD) for oral topotecan to be 2.3 mg m-2 for the daily times five dosing schedule (Gerrits et al, 1998). […] In these studies, bioavailability was tested in fasted patients. […] Food can have marked effects on drug absorption by increasing, decreasing, or sometimes simply delaying it. Food can also influence drug metabolism, and certain food components, such as protein and fat, are particularly potent in this respect. For an oral formulation it is therefore essential to investigate the effect of food co-administration on the pharmacokinetics. The aims of the present study were (1) to evaluate the effect of fed and fasted conditions on the bioavailability and pharmaco- kinetics of oral topotecan, and (2) to determine the absolute bioavailability of the gelatin capsule formulation. Oral topotecan: bioavailability and effect of food co-administration VMM Herben1,2 , H Rosing1 , WW ten Bokkel Huinink2 , DM van Zomeren1 , D Batchelor2 , E Doyle3 , FD Beusenberg4 , JH Beijnen1,2 and JHM Schellens2 1 Slotervaart Hospital/The Netherlands Cancer Institute, Department of Pharmacy and Pharmacology, Amsterdam, The Netherlands; 2 Antoni van Leeuwenhoek Hospital/The Netherlands Cancer Institute, Department of Medical Oncology, Amsterdam, The Netherlands; 3 SmithKline Beecham Pharmaceuticals, Department of Drug Metabolism and Pharmacokinetics, Hertfordshire, UK; 4 SmithKline Beecham Farma, Rijswijk, The Netherlands Summary The aims of the study were twofold: (1) to evaluate the effect of food on the relative oral bioavailability of topotecan gelatin capsules in patients with solid tumours, and (2) to determine the absolute bioavailability of oral topotecan with reference to the intravenous (i.v.) formulation. […] On day 1 of the first treatment course patients were administered 2.3 mg m-2 day-1 of oral topotecan with or without a high-fat breakfast. They crossed over to receive the alternate regimen on day 2. In the second course (3 weeks later) fasted patients received topotecan orally (2.3 mg m-2 day-1 ) or i.v. ([…]). They crossed over to receive the alternate regimen on day 2. On days 3-5 of both treatment courses patients received oral topotecan. Plasma pharmacokinetics were performed on days 1 and 2 of the first and second course using a high-performance liquid chromatographic assay. Eighteen patients were enrolled in the study. The ratio of the area under the curve to infinity during fasted and high-fat treatment was 0.93 0.23 (90% confidence interval (CI) 0.83-1.03). Maximal plasma concentrations of topotecan were similar after ingestion of the capsules with (10.6 4.4 ng ml-1 ) or without food (9.2 4.1 ng ml-1 ) (P = 0.130). […]

Data set [5] is described as follows: clinical. Particulars: human, in vivo. Also noted: species or system human (patients with solid tumours).
Source text: as §1

For a further data set, the system named is topoisomerase I. Also noted: method as in Johnson and Wood, personal communication. Particulars: ref Johnson and Wood, personal communication; cited from earlier work.
Setting [6] is: metabolite as total of lactone and carboxylate, corrected for administered topotecan dose.
[7] abbreviates: total of the analyte, plasma, after i.v. topotecan 1.5 mg m-2.
The mark [8] stands for this setting: total, corrected for actual administered topotecan dose.

This is an account of results in PMC2363072, “Oral topotecan: bioavailability and effect of food co-administration” (British Journal of Cancer, 1999).

Like-named read-outs stand apart in the source and are kept apart here.

By bioavailability is commonly meant the share of a dose that reaches the circulation, judged against a reference dose that is usually intravenous. As a reminder, the Cmax is the highest concentration seen after dosing. One may read the Tmax as the time at which the peak concentration occurs.

Regarding `CC[C@@]1(O)C(=O)OCc2c1cc1n(c2=O)Cc2cc3c(CN(C)C)c(O)ccc3nc2-1` [topotecan, Topotecan], the bioavailability is 30-44% in data set [1]; 42 ± 13% in the data set “clinical [4]” (human, in vivo, absolute bioavailability (F)); 38% in “clinical [4]” (human, in vivo, bioavailability calculated using only the lactone data). In data set [2], the “part of an absorbed oral dose that enters the blood circulation as the open-ring form” value was “approximately 2.5%”. Further, the “maximum tolerated dose (MTD)” value in data set [3] (daily times five dosing schedule) is reported as 2.3 mg m-2. Moreover, the “Dose-limiting toxicity (DLT)” value in data set [3] (daily times five) was “NCI CTC grade 4 neutropenia”. For the same molecule, the “absolute bioavailability (F) using AUC0-t” value in the data set “clinical [4]” (human, in vivo) was found to be 40%. Besides, the “coefficient of variation of the AUC0- (interpatient variability)” value came out at 25% in “clinical [4]” (human, in vivo, iv) and 44% in “clinical [4]” (human, in vivo, po). Besides, the “lactone:total topotecan AUC0- ratio” value is on record as 0.38 in the data set “clinical [4]” (human, in vivo, iv) and 0.35 in “clinical [4]” (human, in vivo, po). Besides, the “AUC0- (area under the curve to infinity)” value in “clinical [4]” (human, in vivo, iv, 1.5 mg) is 38.6 ng·h/mL; in the data set “clinical [4]” (human, in vivo, po, 2.3 mg) it was 22.7 ng·h/mL. Also, in the data set “clinical [4]” (human, in vivo, iv, 1.5 mg), the “t1/2 (apparent terminal half-life)” value stood at 2.64 h. In addition, the maximum concentration (Cmax) in the data set “clinical [4]” (human, in vivo, iv, 1.5 mg, Cmax) was 33.9 ng/mL; in “clinical [4]” (human, in vivo, po, 2.3 mg, Cmax) it was 6.3 ng/mL. Further, the AUC0-t is 20.4 ng·h/mL in “clinical [4]” (human, in vivo, po, 2.3 mg) and 19.6 ng·h/mL in the data set “clinical [5]” (po, 2.3 mg, AUC0-t). The “plasma concentration at the pre-dose time point for day 2 (carry-over), mean” value in the data set “clinical [5]” is 0.43 ng/mL. Moreover, in “clinical [5]” (po, 2.3 mg), the “AUC0- (to infinity) ratio fasted/fed” value came out at 0.88. In addition, the “time needed to reach maximal plasma levels (tmax), median” value in the data set “clinical [5]” (po, 2.3 mg) came to 2.0 h. Moreover, the half-life is 3.84 h in “clinical [5]” (po, 2.3 mg, t1/2 (apparent terminal half-life)) and 3.49 h in “clinical [5]” (total, oral 2.3 mg m-2, fed, read-out: t1/2 (apparent terminal half-life) (converted)). Moreover, the Tmax in “clinical [5]” (po, 2.3 mg, time needed to reach maximal plasma levels (tmax), median) turned out to be 3.1 h.

In the case of `CC[C@@]1(O)C(=O)OCc2c1cc1n(c2=O)Cc2cc3c(CNC)c(O)ccc3nc2-1` [N-desmethyltopotecan], the entries for the “metabolic ratio (metabolite:topotecan AUC ratio)” value in the data set “clinical [4]” (after i.v. administration) and in the data set “clinical [4]” (after oral administration) were 4.5% and 6.9%, respectively. Moreover, the figures for the “time at which maximal total metabolite plasma levels were reached, median” value in the data set “clinical [4]” (after ingestion of topotecan capsules) and in “clinical [4]” (after the start of the i.v. infusion) were 4.0 h and 2.1 h, respectively. In the data set “clinical [4]” (lactone form of metabolite, lower limit of quantification 0.1 ng ml-1), the lactone plasma concentrations result is listed as “below the detection limit in six patients”. Further, in “clinical [4]” (setting [6]), the “oral:i.v. AUC0- (to infinity) ratio” value is reported as 62%. Also, the “oral:i.v. AUC0-t ratio” value in “clinical [4]” (setting [6]) came out at 71%. Besides, the Cmax was determined as 0.44 ng/mL in the data set “clinical [4]” (plasma, after i.v. topotecan 1.5 mg m-2) and 0.34 ng/mL in the data set “clinical [4]” (plasma, after oral topotecan 2.3 mg m-2). Moreover, the t1/2 ratio oral/i.v. in the data set “clinical [4]” (total) is 1.17. The AUC0-t came out at 2.7 ng·h/mL in the data set “clinical [4]” (total (lactone + carboxylate) of the analyte, plasma, after oral topotecan 2.3 mg m-2) and 2.4 ng·h/mL in the data set “clinical [4]” (setting [7]). Further, the Urinary excretion is 0.9% in the data set “clinical [4]” (total of the analyte, % of i.v. topotecan dose) and 1.1% in the data set “clinical [4]” (total of the analyte, % of oral topotecan dose (topotecan corrected for F)). Besides, the “t1/2 (apparent terminal half-life)” value came to 6.21 h in “clinical [4]” (total of the analyte, after i.v. topotecan 1.5 mg m-2) and 7.25 h in “clinical [4]” (total of the analyte, after oral topotecan 2.3 mg m-2). The “AUC0- (area under the curve to infinity)” value was found to be 4.8 ng·h/mL in “clinical [4]” (setting [7]) and 4.6 ng·h/mL in “clinical [4]” (total of the analyte, plasma, after oral topotecan 2.3 mg m-2). The “AUC0- (to infinity) ratio oral/i.v.” value in “clinical [4]” (setting [8]) is recorded as 0.62. Further, in the data set “clinical [4]” (setting [8]), the AUC0-t ratio oral/i.v. is recorded as 0.71. Further, the Cmax ratio oral/i.v. in the data set “clinical [4]” (setting [8]) was 0.51. For the same molecule, in the data set on topoisomerase I, the “topoisomerase I-inhibiting activity relative to parent compound” value is recorded as “slightly less topoisomerase I-inhibiting activity than the parent compound”.
